{
  "source": "ChEMBL document CHEMBL5726857",
  "about": "“Bacterial topoisomerase I inhibitors with antibacterial activity” (2019)",
  "key": {"[1]": {"test": "DNA Gyrase Supercoiling Inhibition Assay: DNA gyrase supercoiling assays were carried out by mixing the compounds and the enzyme in a similar manner as above (EcTopI relaxation inhibition assay) but in a gyrase assay buffer (35 mM Tris-HCl, 24 mM KCl, 4 mM MgCl2, 2 mM DTT, 1.75 mM ATP, 5 mM spermidine, 0.1 mg/mL BSA, 6.5% glycerol at pH 7.5), followed by the addition of 300 ng of relaxed covalently closed circular DNA (New England Biolabs, Ipswich, Mass., USA) to a final reaction volume of 20 μL. The samples were incubated at 37° C. for 30 minutes before being terminated by the addition of a buffer containing 5% SDS, 0.25% bromophenol blue, and 25% glycerol. The reactions were then analyzed by agarose gel electrophoresis.", "parameters": "species or system Escherichia coli"}, "[2]": {"test": "E. coli Topoisomerase I Relaxation Activity Inhibition Assay: The relaxation activity of E. coli topoisomerase I was assayed in a buffer containing 10 mM Tris-HCl, pH 8.0, 50 mM NaCl, 0.1 mg/mL gelatin, and 0.5 mM MgCl2. Half microliter from the appropriate stock solutions of compounds dissolved in the solvent (DMSO) or the solvent alone (control) was mixed with 9.5 μL of the reaction buffer containing 10 ng of enzyme before the addition of 10 μL of reaction buffer containing 200 ng of supercoiled pBAD/Thio plasmid DNA purified by cesium chloride gradient as substrate. Following incubation at 37° C. for 30 min, the reactions were terminated by the addition of 4 μL of a stop buffer (50% glycerol, 50 mM EDTA, and 0.5% (v/v) bromophenol blue), and analyzed by agarose gel electrophoresis. The gels were stained in ethidium bromide and photographed under UV light."}},
  "data": [
    {"smiles": "Nc1ccc2c(c1)Oc1c(N3CCNCC3)c(F)cc3c(=O)c(C(=O)O)cn-2c13", "values": [
      {"measurement": "IC50", "setting": "[1]", "result": 11.7, "unit": "µM"}
    ]},
    {"smiles": "Nc1ccc2c(c1)Oc1c(N3CCCCC3)c(F)cc3c(=O)c(C(=O)O)cn-2c13", "values": [
      {"measurement": "IC50", "setting": "[2]", "result": 3.9, "unit": "µM"}
    ]},
    {"smiles": "CCCCCNc1c(F)cc2c(=O)c(C(=O)O)cn3c2c1Oc1cc(N)ccc1-3", "values": [
      {"measurement": "IC50", "setting": "[2]", "result": 15.6, "unit": "µM"}
    ]},
    {"smiles": "CN1CCN(c2c(F)cc3c(=O)c(C(=O)O)cn4c3c2Oc2cc(N)ccc2-4)CC1", "values": [
      {"measurement": "IC50", "setting": "[1]", "result": 23.4, "unit": "µM"}
    ]}
  ]
}
